We go through 35 compounds from the supplement of paper PMC4862054.

This assay concerns HDQ-P1. Kind of assay: normalised response (% of control), CellTox Green; higher = less cell death (100 = DMSO, 0 = benzethonium chloride kill control). The note with it: incubation time: 72 h. In a few lines:
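Breast cancer cell lines (20 µl suspension) were seeded into 384-well plates holding compound at 5 concentrations in 10-fold steps over a compound-specific 10,000-fold range, then incubated 72 h. CellTox Green fluorescence (485/520 nm) was read first, then CellTiter-Glo luminescence after 10 min at room temperature. Each plate was normalised to 0.1 % DMSO (100) and a positive kill control (0). Each value is the normalised signal at a single concentration of the series.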
With `COc1cc(Nc2c(C#N)cnc3cc(OCCCN4CCN(C)CC4)c(OC)cc23)c(Cl)cc1Cl` [Bosutinib] (10000 nM), the normalised response amounted to 31.8%.
As for `Cn1cc(C2=C(c3cn(C4CCN(Cc5ccccn5)CC4)c4ccccc34)C(=O)NC2=O)c2ccccc21` [Enzastaurin] (10000 nM), the normalised response stood at 101%.
Take `CC1(C)CCC(c2ccc(Cl)cc2)=C(CN2CCN(c3ccc(C(=O)NS(=O)(=O)c4ccc(N[C@H](CCN5CCOCC5)CSc5ccccc5)c(S(=O)(=O)C(F)(F)F)c4)cc3)CC2)C1` [Navitoclax] (10000 nM): the normalised response was -0.28%.
Consider `Cn1cc(C2=C(c3cn(C4CCN(Cc5ccccn5)CC4)c4ccccc34)C(=O)NC2=O)c2ccccc21` [Enzastaurin] (1000 nM), for which the normalised response came out at 87.7%.
For the compound `CNC(=O)c1ccccc1Sc1ccc2c(/C=C/c3ccccn3)n[nH]c2c1` [Axitinib] (10000 nM), the normalised response came to 58.1%.
As for `CC(C)(C)NC(=O)[C@H]1CC[C@H]2[C@@H]3CC[C@H]4NC(=O)C=C[C@]4(C)[C@H]3CC[C@]12C` [Finasteride] (1000 nM), the normalised response turned out to be 113%.
Turning to `C=CCn1c(=O)c2cnc(Nc3ccc(N4CCN(C)CC4)cc3)nc2n1-c1cccc(C(C)(C)O)n1` [MK1775] (1000 nM), the normalised response came out at 48.7%.
On to `CC(C)C[C@H](NC(=O)[C@@H](COC(C)(C)C)NC(=O)[C@H](Cc1ccc(O)cc1)NC(=O)[C@H](CO)NC(=O)[C@H](Cc1c[nH]c2ccccc12)NC(=O)[C@H](Cc1cnc[nH]1)NC(=O)[C@@H]1CCC(=O)N1)C(=O)N[C@@H](CCCNC(=N)N)C(=O)N1CCC[C@H]1C(=O)NNC(N)=O` [Goserelin] (10000 nM), for which the normalised response turned out to be 62.5%.
The figure for `CO[C@@]12[C@H](COC(N)=O)C3=C(C(=O)C(C)=C(N)C3=O)N1C[C@@H]1N[C@@H]12` [Mitomycin C] (10000 nM) is 71.8%; for `C=CCn1c(=O)c2cnc(Nc3ccc(N4CCN(C)CC4)cc3)nc2n1-c1cccc(C(C)(C)O)n1` [MK1775] (10000 nM) it is 40.5%; for `CC(O)(CS(=O)(=O)c1ccc(F)cc1)C(=O)Nc1ccc(C#N)c(C(F)(F)F)c1` (stereo not given) [Bicalutamide] (1000 nM) it is 104%.
Take `Cc1cn(-c2cc(NC(=O)c3ccc(C)c(Nc4nccc(-c5cccnc5)n4)c3)cc(C(F)(F)F)c2)cn1` [Nilotinib] (10000 nM): the normalised response is 108%.
The figure for `CCNC(=O)CCC/C=C\C[C@@H]1[C@@H](/C=C/[C@@H](O)CCc2ccccc2)[C@H](O)C[C@@H]1O` [Bimatoprost] (5500 nM) is 79.9%.
In the case of `COc1ccc(S(=O)(=O)Nc2cccnc2Nc2ccc(O)cc2)cc1` [ABT-751] (10000 nM), the normalised response stood at 107%.
`Nc1ccn([C@@H]2O[C@H](CO)[C@@H](O)C2(F)F)c(=O)n1` [Gemcitabine] (100 nM): the normalised response amounted to 87.8%.
Take `C/C(=C\c1csc(C)n1)[C@@H]1C[C@@H]2O[C@]2(C)CCC[C@H](C)[C@H](O)[C@@H](C)C(=O)C(C)(C)[C@@H](O)CC(=O)N1` [Ixabepilone] (1000 nM): the normalised response worked out at 96.2%.
In the case of `Nc1ccn([C@@H]2O[C@H](CO)[C@@H](O)C2(F)F)c(=O)n1` [Gemcitabine] (1000 nM), the normalised response was 108%.
Turning to `COc1ccc(S(=O)(=O)Nc2cccnc2Nc2ccc(O)cc2)cc1` [ABT-751] (1000 nM), the normalised response came out at 90.5%.
As for `COc1cc(Nc2c(C#N)cnc3cc(OCCCN4CCN(C)CC4)c(OC)cc23)c(Cl)cc1Cl` [Bosutinib] (1000 nM), the normalised response is 93.3%.
In the case of `CO[C@@H]1[C@H](N(C)C(=O)c2ccccc2)C[C@H]2O[C@]1(C)n1c3ccccc3c3c4c(c5c6ccccc6n2c5c31)C(=O)NC4` [Midostaurin] (1000 nM), the normalised response stood at 93%.
Consider `Cc1cc(Nc2nc(N[C@@H](C)c3ncc(F)cn3)ncc2Cl)[nH]n1` [AZD1480] (100 nM), for which the normalised response stood at 97.1%.
On to `O=C(CCCCCCC(=O)Nc1ccccc1)NO` [Vorinostat] (10000 nM), for which the normalised response was found to be 103%.
The figure for `CC(C)(C)NC(=O)[C@H]1CC[C@H]2[C@@H]3CC[C@H]4NC(=O)C=C[C@]4(C)[C@H]3CC[C@]12C` [Finasteride] (10000 nM) is 102%; for `CC1(C)CCC(c2ccc(Cl)cc2)=C(CN2CCN(c3ccc(C(=O)NS(=O)(=O)c4ccc(N[C@H](CCN5CCOCC5)CSc5ccccc5)c(S(=O)(=O)C(F)(F)F)c4)cc3)CC2)C1` [Navitoclax] (1000 nM) it is 54.7%.
As for `Cc1cn(-c2cc(NC(=O)c3ccc(C)c(Nc4nccc(-c5cccnc5)n4)c3)cc(C(F)(F)F)c2)cn1` [Nilotinib] (1000 nM), the figure is 79.2%; as for `CC(O)(CS(=O)(=O)c1ccc(F)cc1)C(=O)Nc1ccc(C#N)c(C(F)(F)F)c1` (stereo not given) [Bicalutamide] (10000 nM), 66.2%; as for `CO[C@@]12[C@H](COC(N)=O)C3=C(C(=O)C(C)=C(N)C3=O)N1C[C@@H]1N[C@@H]12` [Mitomycin C] (1000 nM), 106%.
Take `CCNC(=O)CCC/C=C\C[C@@H]1[C@@H](/C=C/[C@@H](O)CCc2ccccc2)[C@H](O)C[C@@H]1O` [Bimatoprost] (550 nM): the normalised response worked out at 66.3%.
Take `CO[C@@H]1[C@H](N(C)C(=O)c2ccccc2)C[C@H]2O[C@]1(C)n1c3ccccc3c3c4c(c5c6ccccc6n2c5c31)C(=O)NC4` [Midostaurin] (10000 nM): the normalised response is 55.3%.
The figure for `Cc1cc(Nc2nc(N[C@@H](C)c3ncc(F)cn3)ncc2Cl)[nH]n1` [AZD1480] (1000 nM) is 69.3%.
As to `CC(=O)[C@]1(O)Cc2c(O)c3c(c(O)c2[C@@H](O[C@H]2C[C@H](N)[C@H](O)[C@H](C)O2)C1)C(=O)c1ccccc1C3=O` [Idarubicin] (1000 nM), the normalised response was 85.6%.
As for `CCNC(=O)c1noc(-c2cc(C(C)C)c(O)cc2O)c1-c1ccc(CN2CCOCC2)cc1` [NVP-AUY922] (1000 nM), the figure is 68.8%; as for `CNC(=O)c1ccccc1Sc1ccc2c(/C=C/c3ccccn3)n[nH]c2c1` [Axitinib] (1000 nM), 102%.
As for `CC(C)C[C@H](NC(=O)[C@@H](COC(C)(C)C)NC(=O)[C@H](Cc1ccc(O)cc1)NC(=O)[C@H](CO)NC(=O)[C@H](Cc1c[nH]c2ccccc12)NC(=O)[C@H](Cc1cnc[nH]1)NC(=O)[C@@H]1CCC(=O)N1)C(=O)N[C@@H](CCCNC(=N)N)C(=O)N1CCC[C@H]1C(=O)NNC(N)=O` [Goserelin] (1000 nM), the normalised response was 107%.
The figure for `CCNC(=O)c1noc(-c2cc(C(C)C)c(O)cc2O)c1-c1ccc(CN2CCOCC2)cc1` [NVP-AUY922] (100 nM) is 62.8%.
